Results taken from ChEMBL document CHEMBL6177953, “Discovery of a novel quinoxaline derivative modulator via a dual P53/TLR2 targeting strategy for the alleviation of radiation damage” (Eur J Med Chem, 2025).
Activity calls are given as the source filed them. The rule behind the calls is not given here.

Key:
[1] = system: AHH-1; assay: Cytotoxicity against human AHH-1 cells incubated for 24 to 96 hrs by CCK-8 assay; assay type: functional, cell-based
[2] = Cytotoxicity against HUVEC incubated for 24 to 96 hrs by CCK-8 assay; assay type: toxicity, cell-based; conditions: human, HUVEC cells
[3] = system: AHH-1; assay: Antiradiation activity in human AHH-1 cells assessed as increase in cell viability at 2.5 to 10 micromol/L pre-treated with compound for 24 hrs followed by irradiation at 4 Gy measured after 24 hrs by CCK-8 assay; assay type: functional, cell-based; conditions: dose 2.5-10 µmol/L, time 48.0 hrs
[4] = system: AHH-1; assay: Antiradiation activity in human AHH-1 cells assessed as increase in cell viability at 2.5 micromol/L pre-treated with compound for 24 hrs followed by irradiation at 4 Gy measured after 24 hrs by CCK-8 assay; assay type: functional, cell-based; conditions: dose 2.5 µmol/L, time 48.0 hrs
[5] = system: HUVEC; assay: Antiradiation activity in human HUVEC assessed as cell viability at 5 to 20 micromol/L pre-treated with compound for 24 hrs followed by irradiation at 6 Gy measured after 96 hrs by CCK-8 assay; assay type: functional, cell-based; conditions: dose 5-20 µmol/L, time 120.0 hrs
[6] = system: Mus musculus; assay: Radioprotective activity in male C57BL/6J mouse assessed as survival rate at 250 mg/kg, ip pre-treated with compound for 24.25 hrs followed by irradiation at 8.5 Gy and measured for 30 days post irradiation relative to control; assay type: functional; conditions: time 744.25 hrs
[7] = system: Mus musculus; assay: Radioprotective activity in male C57BL/6J mouse assessed as increase in body weight at 250 mg/kg, ip pre-treated with compound for 24.25 hrs followed by irradiation at 8.5 Gy and measured on day 1 post irradiation; assay type: functional, organism-based; conditions: time 48.25 hrs
[8] = system: Mus musculus; assay: Radioprotective activity in male C57BL/6J mouse assessed as increase in body weight at 250 mg/kg, ip pre-treated with compound for 24.25 hrs followed by irradiation at 8.5 Gy and measured on day 18 post irradiation; assay type: functional, organism-based; conditions: time 456.25 hrs
[9] = system: Mus musculus; assay: Radioprotective activity in male C57BL/6J mouse assessed as increase in cell growth at 250 to 300 mg/kg, ip pre-treated with compound for 24.25 hrs followed by irradiation at 6.5 Gy and measured on 30 day post irradiation; assay type: functional, organism-based; conditions: dose 250-300 mg/kg, time 744.25 hrs
[10] = system: Mus musculus; assay: Radioprotective activity in male C57BL/6J mouse assessed as time required to increase in WBC count at 250 mg/kg, ip pre-treated with compound for 24.25 hrs followed by irradiation at 6.5 Gy and measured on 30 day post irradiation; assay type: functional; conditions: time 744.25 hrs
[11] = system: Mus musculus; assay: Radioprotective activity in male C57BL/6J mouse assessed as time required to increase in RBC count at 250 mg/kg, ip pre-treated with compound for 24.25 hrs followed by irradiation at 6.5 Gy and measured on 30 day post irradiation; assay type: functional; conditions: time 744.25 hrs
[12] = system: Mus musculus; assay: Radioprotective activity in male C57BL/6J mouse assessed as time required to increase in neutrophil count at 250 mg/kg, ip pre-treated with compound for 24.25 hrs followed by irradiation at 6.5 Gy and measured on 30 day post irradiation; assay type: functional; conditions: time 744.25 hrs
[13] = system: Mus musculus; assay: Radioprotective activity in male C57BL/6J mouse assessed as time required to increase in platelets at 250 mg/kg, ip pre-treated with compound for 24.25 hrs followed by irradiation at 6.5 Gy and measured on 30 day post irradiation; assay type: functional; conditions: time 744.25 hrs
[14] = system: Mus musculus; assay: Radioprotective activity in male C57BL/6J mouse assessed as increase in crypts villus length in mouse jejunum at 250 mg/kg, ip pre-treated with compound for 24.25 hrs followed by irradiation at 13 Gy and measured on 3.5 day post irradiation; assay type: functional, organism-based; conditions: time 108.25 hrs
[15] = system: Mus musculus; assay: Radioprotective activity in male C57BL/6J mouse assessed as attenuation of spleen atrophy at 250 mg/kg, ip pre-treated with compound for 24.25 hrs followed by irradiation at 13 Gy and measured on 3.5 day post irradiation; assay type: functional, organism-based; conditions: time 108.25 hrs
[16] = system: AHH-1; assay: Induction of apoptosis in human AHH-1 cells assessed as viable cells pre-treated with compound for 24 hrs followed by irradiation at 6 Gy and measured after 24 hrs by Annexin V-FITC/PI staining based Flow cytometry analysis (reference value: 83.6%); assay type: functional; conditions: time 48 hrs
[17] = system: AHH-1; assay: Induction of apoptosis in human AHH-1 cells assessed as early apoptotic cells pre-treated with compound for 24 hrs followed by irradiation at 6 Gy and measured after 24 hrs by Annexin V-FITC/PI staining based Flow cytometry analysis (reference value: 8.15%); assay type: functional; conditions: time 48 hrs
[18] = system: AHH-1; assay: Induction of apoptosis in human AHH-1 cells assessed as late apoptotic cells pre-treated with compound for 24 hrs followed by irradiation at 6 Gy and measured after 24 hrs by Annexin V-FITC/PI staining based Flow cytometry analysis (reference value: 2.65%); assay type: functional; conditions: time 48 hrs
[19] = system: AHH-1; assay: Induction of apoptosis in human AHH-1 cells assessed as necrotic cells pre-treated with compound for 24 hrs followed by irradiation at 6 Gy and measured after 24 hrs by Annexin V-FITC/PI staining based Flow cytometry analysis (reference value: 5.37%); assay type: functional; conditions: time 48 hrs
[20] = system: AHH-1; assay: Radioprotective activity against 6 Gy radiation-induced DNA damage in human AHH-1 cells assessed as attenuation of gamma-H2AX expression incubated for 0.5 to 2 hrs by immunohistochemical staining based confocal fluorescence microscopic analysis; assay type: functional, cell-based; conditions: time 0.5-2 hrs
[21] = system: AHH-1; assay: Induction of DNA damage repair activity in 6 Gy radiation-induced human AHH-1 cells assessed as downregulation of Bax level pre-treated with compound for 24 hrs followed by irradiation by Co-immunoprecipitation analysis; assay type: functional, cell-based
[22] = system: AHH-1; assay: Induction of DNA damage repair activity in 6 Gy radiation-induced human AHH-1 cells assessed as downregulation of P53 level pre-treated with compound for 24 hrs followed by irradiation by Co-immunoprecipitation analysis; assay type: functional, cell-based
[23] = system: HUVEC; assay: Upregulation of MyD88 expression in HUVEC incubated for 24 hrs in presence of irradiation by Co-immunoprecipitation analysis; assay type: functional, cell-based; conditions: Homo sapiens
[24] = system: HUVEC; assay: Upregulation of P65 expression in HUVEC incubated for 24 hrs in presence of irradiation by Co-immunoprecipitation analysis; assay type: functional, cell-based; conditions: Homo sapiens
[25] = system: HUVEC; assay: Upregulation of IL-6 secretion in HUVEC at 20 to 80 uM incubated for 24 hrs in presence of irradiation by ELISA; assay type: functional, cell-based; conditions: Homo sapiens, dose 20-80 µM
[26] = molecular target: T1, Toll-like receptor 2 (Homo sapiens, UniProt O60603); assay: Binding affinity to TLR2 (unknown origin) assessed as dissociation constant by SPR analysis
T1 sequence (O60603 whole entry): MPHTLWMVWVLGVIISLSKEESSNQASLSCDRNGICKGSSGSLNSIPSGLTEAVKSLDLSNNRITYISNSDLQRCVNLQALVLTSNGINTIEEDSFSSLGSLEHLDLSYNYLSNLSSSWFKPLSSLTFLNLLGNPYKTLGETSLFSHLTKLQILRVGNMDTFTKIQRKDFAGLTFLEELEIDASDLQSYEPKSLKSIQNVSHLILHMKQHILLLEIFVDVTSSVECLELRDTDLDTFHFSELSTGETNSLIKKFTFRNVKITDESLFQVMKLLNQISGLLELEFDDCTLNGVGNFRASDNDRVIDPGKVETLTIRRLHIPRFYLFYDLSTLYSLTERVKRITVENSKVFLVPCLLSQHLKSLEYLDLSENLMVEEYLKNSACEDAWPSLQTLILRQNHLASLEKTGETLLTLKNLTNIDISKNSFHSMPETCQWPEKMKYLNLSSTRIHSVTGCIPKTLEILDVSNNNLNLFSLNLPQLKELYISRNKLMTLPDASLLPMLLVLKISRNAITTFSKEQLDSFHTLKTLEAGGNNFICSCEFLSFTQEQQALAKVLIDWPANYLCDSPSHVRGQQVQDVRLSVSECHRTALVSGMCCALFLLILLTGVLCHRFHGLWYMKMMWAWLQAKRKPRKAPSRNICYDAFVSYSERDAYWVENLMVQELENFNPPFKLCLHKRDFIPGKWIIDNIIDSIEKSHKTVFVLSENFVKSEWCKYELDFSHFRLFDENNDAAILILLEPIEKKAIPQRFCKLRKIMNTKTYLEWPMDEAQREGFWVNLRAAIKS

[27] = molecular target: T1, Toll-like receptor 2; assay: Binding affinity to TLR2 (unknown origin) by SPR analysis; conditions: filed as modulator, dose 312.5-10000 nM
[28] = system: AHH-1; assay: Antiradiation activity in human AHH-1 cells assessed as increase in cell viability at 2.5 to 10 micromol/L pre-treated with compound for 24 hrs followed by irradiation at 6 Gy measured after 24 hrs by CCK-8 assay; assay type: functional, cell-based; conditions: dose 2.5-10 µmol/L, time 48.0 hrs
[29] = system: AHH-1; assay: Antiradiation activity in human AHH-1 cells assessed as increase in cell viability at 2.5 to 10 micromol/L pre-treated with compound for 24 hrs followed by irradiation at 8 Gy measured after 24 hrs by CCK-8 assay; assay type: functional, cell-based; conditions: dose 2.5-10 µmol/L, time 48.0 hrs
[30] = system: AHH-1; assay: Antiradiation activity in human AHH-1 cells assessed as increase in cell viability at 2.5 micromol/L pre-treated with compound for 24 hrs followed by irradiation at 6 Gy measured after 24 hrs by CCK-8 assay; assay type: functional, cell-based; conditions: dose 2.5 µmol/L, time 48.0 hrs
[31] = system: AHH-1; assay: Antiradiation activity in human AHH-1 cells assessed as increase in cell viability at 2.5 micromol/L pre-treated with compound for 24 hrs followed by irradiation at 8 Gy measured after 24 hrs by CCK-8 assay; assay type: functional, cell-based; conditions: dose 2.5 µmol/L, time 48.0 hrs
[32] = system: HUVEC; assay: Antiradiation activity in human HUVEC assessed as cell viability at 5 to 20 micromol/L pre-treated with compound for 24 hrs followed by irradiation at 8 Gy measured after 96 hrs by CCK-8 assay; assay type: functional, cell-based; conditions: dose 5-20 µmol/L, time 120.0 hrs

N#Cc1ccc(CS(=O)(=O)c2cnc3ccccc3n2)cc1
IC50 [1]: > 60 µM | IC50 [2]: > 60 µM | Activity [3]: Active | Activity [4]: Active | Activity [5]: Active | Activity [6]: 100% | Activity [7]: inactive | Activity [8]: Active; Compound Showed Significant Regaining Effect | Activity [9]: Active | Time [10]: 10 days | Time [11]: 14 days | Time [12]: 14 days | Time [13]: 14 days | Activity [14]: Active | Activity [15]: Active | Activity [16]: 72% | Activity [17]: 13.1% | Activity [18]: 6.07% | Activity [19]: 8.81% | Activity [20]: Active | Activity [21]: Active | Activity [22]: Active | Activity [23]: Active | Activity [24]: Active | Activity [25]: Active | Kd [26]: 3.93 µM | Activity [27]: Dose-dependent-effect | Activity [28]: Active | Activity [29]: Active | Activity [30]: Active | Activity [31]: Active | Activity [32]: Active
